Test results as given in US11028051B2, “Tetrahydroquinoline-based bromodomain inhibitors” (St. Jude Children's Research Hospital, priority 2016, dated 2021).
Like-named read-outs stand apart in the source and are kept apart here.

Columns and labels:
BRD2-BD1 = BRD2-BD1 (Homo sapiens (Human), UniProt P25440); assay: competitive TR-FRET assay, BET-BD with acetylated peptide ligand; type: binding; conditions: read-out: EC50 (μM) BRD2(1)
Method: (§1) Inhibitor potency was determined using a competitive TR-FRET assay as detailed herein, measuring interaction of the respective BET-BD with an acetylated peptide ligand (Table 2).

BRDT = BRDT (Homo sapiens, UniProt Q58F21); assay: as above; type: binding
Method: as §1

BRD2-BD2 = BRD2-BD2 (Homo sapiens (Human), UniProt P25440); assay: as above; type: binding; conditions: for EC50: read-out: EC50 (μM) BRD2(2); for [2(1)/2(2)]: Table 4, ratio of EC50
Method: as §1

BRDT(1) = BRDT(1) (Homo sapiens (Human), UniProt Q58F21); assay: BROMOscan KD determination; type: binding; conditions: Table 10
From the text: (§2) DiscoverX® can screen compounds against all ˜42 bromodomains (a service called BROMOscan) and perform follow-up KD determination. This service is considered the industrial standard for bromodomain inhibitor comparisons. […] Dots are symbolic of inhibition of the compound at this concentration; the larger the size of the dot, the greater the activity of the compound. […] Though these compounds are selective for the BET family, the selectivity within the BET family is poor. The results of a competitive binding experiment between compounds 19 (left), 41 (center), and 56 (right) (at a single concentration, 1 μM) and a control for each of the bromodomains are shown in FIG. 5.

BRDT(2) = BRDT(2) (Homo sapiens (Human), UniProt Q58F21); assay: BROMOscan KD determination; type: binding; conditions: for Kd: BROMOscan, Table 10
From the text: as §2

BRD2(2) = BRD2(2) (Homo sapiens (Human), UniProt P25440); assay: BROMOscan KD determination; type: binding; conditions: for Kd: BROMOscan, Table 10
From the text: as §2

BRD2(1) = BRD2(1) (Homo sapiens (Human), UniProt P25440); assay: BROMOscan KD determination; type: binding; conditions: Table 10
From the text: as §2

[1] = test system: c-Myc expression in HDMB03 cells; assay: c-Myc expression inhibition, high content microscopy (HCM); type: cell-based, human; conditions: read-out: EC50 (μM) Myc-inhibition
Method: 3000 human G3 medulloblastoma or 2000 mouse SHH medulloblastoma cells per well were plated into 384-well plates (6007710, Perkin Elmer) in 30 μL of supplemented neurobasal medium using a Wellmate automated dispenser (Thermo Matrix). After 24 hours, 125 nl of compound was transferred via pin tool, resulting in a final drug concentration from 2 nM to 40 μM. 72 hours after adding the drug, the plates were fixed with 4% formaldehyde for 20 min. After fixation the cells were then washed 3 times with 75 μl of PBS. The cells were then permeabilized with 0.1% Triton-X 100 for 15 minutes at 25° C. and blocked using 1% BSA in PBS for 1 hour at 25° C. The primary antibody against c-Myc Ab (#9402, Cell Signaling) at a 1:400 dilution was diluted in 1% BSA in PBS. This mixture was added to each well before incubation overnight at 4° C. Each well was then washed 3 times with PBS using a Biotek ELX405 Select plate washer, and incubated for 1 hour at 25° C. with a solution containing 1/400 goat α-rabbit-Alexa-488 (4412S, Cell Signaling) and 1 μM Hoechst 33342 to detect nuclear material (H3570, Molecular Probes). Two images were captured of each well at 10× using a GE Healthcare InCell 6000 at 405 nM to detect nuclear staining and 488 nM to detect c-Myc. All data were analyzed using the multi-target analysis algorithm of the GE InCell Analyzer Workstation software. The number of nuclear objects in each well, as well as all nuclear measurements, was determined through nuclear masks over the Hoechst staining. C-Myc staining was then measured using top-hat segmentation in the entire cell.

BRD3(1) = BRD3(1) (Homo sapiens (Human), UniProt Q15059); assay: BROMOscan KD determination; type: binding; conditions: Table 10
From the text: (§3) DiscoverX® can screen compounds against all ˜42 bromodomains (a service called BROMOscan) and perform follow-up KD determination. This service is considered the industrial standard for bromodomain inhibitor comparisons.

BRD3(2) = BRD3(2) (Homo sapiens (Human), UniProt Q15059); assay: BROMOscan KD determination; type: binding; conditions: for Kd: BROMOscan, Table 10
From the text: as §3

all ~42 bromodomains = assay: BROMOscan competitive binding experiment at a single concentration; conditions: 1 μM, FIG. 4
From the text: as §2

HDMB03 cells = assay: cell viability, CellTiter-Glo; type: cell-based, human; conditions: read-out: EC50 (μM) HDMB03
Procedure, shortened: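 Medulloblastoma cells grown as neurospheres in supplemented neurobasal medium and treated for 7 days; viability read by CellTiter-Glo luminescence. Log10-transformed signal normalized to negative and positive controls; median percent inhibition of triplicates fitted with a four-parameter log-logistic model.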

NALM-16 = assay: anti-proliferative activity; type: cell-based; conditions: Table 5
Method: (§4) After 7 days of treatment, an equal volume of CellTiter-Glo reagent (G7572, Promega) was added and the luminescence signal was measured using an automated Envision plate reader (Perkin-Elmer). Luminescence data were normalized by log10 transformation prior to calculating the percent inhibition using the following equation:
(§5) 100*(negative control mean −compound value)/(negative control mean −positive control mean).

SEM cells = assay: anti-proliferative activity; type: cell-based; conditions: Table 5
Method: as §4, §5

Loucy = assay: anti-proliferative activity; type: cell-based; conditions: Table 5
Method: as §4, §5

[2] = test system: c-Myc oncogene expression; conditions: previous study with BD2-selective BET inhibitor; cited from earlier work
BRD3-BD1 = BRD3-BD1 (Homo sapiens (Human), UniProt Q15059); assay: competitive TR-FRET assay, BET-BD with acetylated peptide ligand; type: binding; conditions: Table 4; read-out: BRD3(1)
Method: as §1

BRD4-BD2 = BRD4-BD2 (Homo sapiens (Human), UniProt O60885); assay: as above; type: binding; conditions: for 4(1)/4(2): Table 4, ratio of EC50; for EC50: Table 4, read-out: EC50 (μM) BRD4(2)
Method: as §1

BRD4-BD1 = BRD4-BD1 (Homo sapiens (Human), UniProt O60885); assay: as above; type: binding; conditions: Table 4; read-out: EC50 (μM) BRD4(1)
Method: as §1

BRD4(1) = BRD4(1) (Homo sapiens (Human), UniProt O60885); assay: BROMOscan KD determination; type: binding; conditions: Table 10
From the text: as §3

BRD4(2) = BRD4(2) (Homo sapiens (Human), UniProt O60885); assay: BROMOscan KD determination; type: binding
From the text: as §3

[3] = test system: neural crest tumor cell lines; assay: activity versus neural crest tumor cell lines; type: cell-based; conditions: several neural crest tumor cell lines; read-out: IC50 ranges

BRD2-BD2, sequence (P25440 344-453): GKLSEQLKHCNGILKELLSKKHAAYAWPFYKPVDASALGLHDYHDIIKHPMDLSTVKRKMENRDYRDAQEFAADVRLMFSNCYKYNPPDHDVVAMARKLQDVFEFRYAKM
BRD2(2), sequence (P25440 344-453): as above
BRD2-BD1, sequence (P25440 74-180): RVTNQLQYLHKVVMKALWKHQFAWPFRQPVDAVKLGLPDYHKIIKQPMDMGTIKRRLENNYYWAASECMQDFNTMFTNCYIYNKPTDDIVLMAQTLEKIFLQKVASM
BRD3(2), sequence (Q15059 306-415): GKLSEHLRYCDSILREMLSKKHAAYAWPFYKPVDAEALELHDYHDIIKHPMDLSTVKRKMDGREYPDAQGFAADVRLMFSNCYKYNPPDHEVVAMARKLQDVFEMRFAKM
BRD3-BD1, sequence (Q15059 34-140): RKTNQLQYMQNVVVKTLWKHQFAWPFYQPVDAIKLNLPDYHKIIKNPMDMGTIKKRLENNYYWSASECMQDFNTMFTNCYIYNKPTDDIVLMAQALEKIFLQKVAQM
BRD3(1), sequence (Q15059 34-140): as above
BRD2(1), sequence (P25440 74-180): as the sequence (P25440 74-180) above

| EC50 (BRD2-BD1; Table 4) [µM] | EC50 (BRDT; Table 4, read-out: BRDT EC50) [nM] | EC50 (BRD2-BD2; Table 4) [µM] | EC50 (BRD3-BD1) [nM] | 4(1)/4(2) (BRD4-BD2) | EC50 (BRD4-BD2) [µM] | EC50 (BRD4-BD1) [µM] | [2(1)/2(2)] (BRD2-BD2) | EC50 ([1]; Homo sapiens, HD-MB03, Table 5) [µM] | SMILES | Kd (BRDT(1)) [nM] | Kd (BRDT(2)) [nM] | Kd (BRD2(2)) [nM] | Kd (BRD2(1)) [nM] | Kd (BRD3(1)) [nM] | Kd (BRD3(2)) [nM] | EC50 (SEM cells) [µM] | EC50 (Loucy) [µM] | EC50 (HDMB03 cells; Homo sapiens, HD-MB03, Table 5) [µM] | EC50 (NALM-16; NALM16) [µM] | also measured |
| --- | --- | --- | --- | --- | --- | --- | --- | --- | --- | --- | --- | --- | --- | --- | --- | --- | --- | --- | --- | --- |
| – | – | – | – | – | – | – | – | – | COc1cc(OC)c2c(=O)[nH]c(-c3cc(C)c(OCCO)c(C)c3)nc2c1 [RVX-208] | – | – | – | – | – | – | – | – | – | – | c-Myc oncogene expression [2]: did not inhibit c-Myc oncogene expression |
| 8.3 | 10000 | 0.16 | 5400 | 59 | 0.14 | 8.3 | 52 | 0.11 | CC(=O)Nc1cccc(-c2ccc3c(c2)[C@H](Nc2ccccc2OC(F)(F)F)C[C@H](C)N3C(C)=O)c1 [compound 19] | 72 | 11 | 3.5 | 170 | 110 | 1.3 | 0.04 | – | 1.14 | > 1.7 | T(1)/T(2) (BRDT(2); BROMOscan KD ratio): 6.5; [2(1)/2(2)] (BRD2(2); BROMOscan KD ratio): 48.6; Kd (BRD4(1)): 99 nM; 4(1)/4(2) (BRD4(2); BROMOscan KD ratio): 58.2; Kd (BRD4(2); BROMOscan, Table 10): 1.7 nM; 3(1)/3(2) (BRD3(2); BROMOscan KD ratio): 84.6 |
| 4.2 | 9100 | 0.06 | 2000 | 52.9 | 0.1 | 6 | 75 | 0.49 | COc1ccccc1N[C@@H]1C[C@H](C)N(C(C)=O)c2ccc(-c3cccc(NC(C)=O)c3)cc21 [compound 40] | – | – | – | – | – | – | 0.02 | 0.32 | 17.6 | 0.26 | IC50 [3]: 50 to 200 nM |

| SMILES | EC50 (BRD2-BD1; Table 4) [µM] | EC50 (BRDT; Table 4, read-out: BRDT EC50) [nM] | EC50 (BRD2-BD2; Table 4) [µM] | EC50 (BRD3-BD1) [nM] | 4(1)/4(2) (BRD4-BD2) | EC50 (BRD4-BD2) [µM] | EC50 (BRD4-BD1) [µM] | [2(1)/2(2)] (BRD2-BD2) | EC50 ([1]; Homo sapiens, HD-MB03, Table 5) [µM] | Kd (BRDT(1)) [nM] | Kd (BRDT(2)) [nM] | Kd (BRD2(2)) [nM] | Kd (BRD2(1)) [nM] | Kd (BRD3(1)) [nM] | Kd (BRD3(2)) [nM] | EC50 (SEM cells) [µM] | EC50 (Loucy) [µM] | EC50 (HDMB03 cells; Homo sapiens, HD-MB03, Table 5) [µM] | EC50 (NALM-16; NALM16) [µM] | also measured |
| --- | --- | --- | --- | --- | --- | --- | --- | --- | --- | --- | --- | --- | --- | --- | --- | --- | --- | --- | --- | --- |
| CC(=O)N1c2ccc(-c3ccc(C(=O)O)cc3)cc2[C@H](Nc2ccc(Cl)cc2)C[C@@H]1C [GSK-726, IBET-726, reference compound] | 1 | 5300 | 0.057 | – | – | – | – | – | – | 4.5 | 0.89 | 0.2 | 4.7 | 3.1 | 0.2 | 0.02 | 0.33 | – | – | EC50 (BRD2-BD1; Table 6): 1.3 µM; EC50 (BRD2-BD1; Table 8): 1.3 µM; EC50 (BRDT; Table 6, head names no target, BRDT by comparison with Table 4, read-out: EC50): 5500 nM; EC50 (BRDT; Table 8, head names no target, BRDT by comparison with Table 4, read-out: EC50): 5500 nM; EC50 (BRD2-BD2; Table 6): 0.19 µM; EC50 (BRD2-BD2; Table 8): 0.19 µM; EC50 ([1]; Table 5): 0.17 µM; EC50 ([1]; Table 7): 1.5 µM; EC50 ([1]; Table 9, c-Myc expression inhibition in HDMB03 cells): 1.5 µM; activity across bromodomain families (all ~42 bromodomains): activity only versus the BET family; EC50 (HDMB03 cells; Table 5): 5.77 µM; EC50 (HDMB03 cells; Table 7): 0.95 µM; EC50 (HDMB03 cells; Table 9, cancer cell proliferation inhibition): 0.95 µM; EC50 (NALM-16): 0.23 µM |
